Where two headings read alike, the source gives them in different places.
What was measured:
[1] = mice, single intraperitoneal injection at 10 mg/kg; cited from earlier work
[2] = molecular target: T1, protein tyrosine phosphatase 1B (PTP1 B) (Homo sapiens, UniProt P18031); conditions: cited from earlier work
T1 sequence (P18031 1-435): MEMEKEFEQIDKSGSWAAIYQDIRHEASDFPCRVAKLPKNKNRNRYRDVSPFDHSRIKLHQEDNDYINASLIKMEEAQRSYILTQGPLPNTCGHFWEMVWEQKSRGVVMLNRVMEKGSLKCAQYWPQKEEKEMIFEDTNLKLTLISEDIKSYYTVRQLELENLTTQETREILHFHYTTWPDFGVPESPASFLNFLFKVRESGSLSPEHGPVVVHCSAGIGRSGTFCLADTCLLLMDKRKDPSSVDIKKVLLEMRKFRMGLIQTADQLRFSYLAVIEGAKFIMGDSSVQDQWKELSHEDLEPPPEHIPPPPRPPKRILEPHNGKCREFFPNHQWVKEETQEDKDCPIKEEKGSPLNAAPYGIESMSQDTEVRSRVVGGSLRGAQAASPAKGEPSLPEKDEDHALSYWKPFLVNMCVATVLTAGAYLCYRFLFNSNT

[3] = tested on: phosphatases of regenerating liver (PRL-1, PRL-2, or PRL-3); conditions: cited from earlier work
[4] = tested on: endo-exonuclease; conditions: PCT Publication No. WO 01/35935; cited from earlier work
[5] = tested on: A549 cells; experiment: Anti-proliferation assay (Alamar Blue metabolism); conditions: Homo sapiens;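 also: 384-well plates, 72–80 h exposure at 37 °C, Alamar Blue fluorescence (ex 530 nm) read 3.5–5 h after dye addition, inhibition relative to mean of vehicle-only wells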
Protocol: Human non-small cells lung carcinoma cells A549 (ATCC# CCL-185), were grown at 37±0.5° C. and 5% CO2 in DMEM supplemented with 10% FBS, 2 mM glutamine, 1% penicillin, and 1% streptomycin.
Stock solutions (1000×) of each compound were prepared in DMSO and stored at −20° C. Master stock plates of 2-fold or 4-fold serial dilutions of individual compounds were prepared in 384-well plates. Combination matrices of test compounds were generated from these master stock plates by dilution into growth media described above. […] The combination matrices were used immediately and discarded.
The anti-proliferation assays were performed in 384-well plates. 6.6 μL of 10× stock solutions from the combination matrices were added to 40 μL of culture media in assay wells. The tumor cells were liberated from the culture flask using a solution of 0.25% trypsin. Cells were diluted in culture media such that 3000 or 6000 cells were delivered in 20 μL of media into each assay well. Assay plates were incubated for 72-80 hours at 37° C. ±0.5° C. with 5% CO2. Twenty microliters of 20% Alamar Blue warmed to 37° C. ±0.5° C. was added to each assay well following the incubation period. Alamar Blue metabolism was quantified by the amount of fluorescence intensity 3.5-5.0 hours after addition. Quantification, using an LJL Analyst AD reader (LJL Biosystems), was taken in the middle of the well with high attenuation, a 100 msec read time, an excitation filter at 530 nm, and an emission filter at 575 nm. For some experiments, quantification was performed using a Wallac Victor^2 reader. Measurements were taken at the top of the well with stabilized energy lamp control; a 100 msec read time, an excitation filter at 530 nm, and an emission filter at 590 nm.
The percent inhibition (% I) for each well was calculated using the following formula: % I=[(avg. untreated wells−treated well)/(avg. untreated wells)]×100 The average untreated well value (avg. untreated wells) is the arithmetic mean of 40 wells from the same assay plate treated with vehicle alone.
Inhibition of proliferation was measured by anti-proliferation assay as described below after incubation with the test compound(s) for 72 hours.

N=C(N)c1ccc(OCCCCCOc2ccc(C(=N)N)cc2)cc1 [Pentamidine, pentamidine]
tissue distribution [1]: The concentration in the kidneys was the highest, followed by that in the liver
inhibition of protein tyrosine phosphatase 1B [2]: effective inhibitor
inhibition of phosphatases of regenerating liver [3]: potent inhibitor
inhibition of endo-exonuclease activity [4]: inhibit the activity of endo-exonuclease
inhibition at 0.013 µM ([5]; A549, read-out: Percent inhibition of Alamar Blue Metabolism, pentamidine 0.013 μM alone (Table 3)): -28.2%
inhibition at 0.013 µM ([5]; A549, read-out: Percent inhibition of Alamar Blue Metabolism, pentamidine 0.013 μM alone (Table 4)): 8.4%
inhibition at 0.013 µM ([5]; A549, read-out: Percent inhibition of Alamar Blue Metabolism, pentamidine 0.013 μM alone (Table 5)): 30.2%
inhibition at 0.013 µM ([5]; A549, read-out: Percent inhibition of Alamar Blue Metabolism, pentamidine 0.013 μM alone (Table 6)): -6.7%
inhibition at 0.013 µM ([5]; A549, read-out: Percent inhibition of Alamar Blue Metabolism, pentamidine 0.013 μM alone (Table 7)): -4.4%
inhibition at 0.026 µM ([5]; A549, read-out: Percent inhibition of Alamar Blue Metabolism, pentamidine 0.026 μM alone (Table 3)): -25.3%
inhibition at 0.026 µM ([5]; A549, read-out: Percent inhibition of Alamar Blue Metabolism, pentamidine 0.026 μM alone (Table 4)): -6.8%
inhibition at 0.026 µM ([5]; A549, read-out: Percent inhibition of Alamar Blue Metabolism, pentamidine 0.026 μM alone (Table 5)): 28.4%
inhibition at 0.026 µM ([5]; A549, read-out: Percent inhibition of Alamar Blue Metabolism, pentamidine 0.026 μM alone (Table 6)): 13.1%
inhibition at 0.026 µM ([5]; A549, read-out: Percent inhibition of Alamar Blue Metabolism, pentamidine 0.026 μM alone (Table 7)): -3%
inhibition at 0.05 µM ([5]; A549, read-out: Percent inhibition of Alamar Blue Metabolism, pentamidine 0.050 μM alone (Table 8)): 2.4%
inhibition at 0.053 µM ([5]; A549, read-out: Percent inhibition of Alamar Blue Metabolism, pentamidine 0.053 μM alone (Table 3)): -12.4%
inhibition at 0.053 µM ([5]; A549, read-out: Percent inhibition of Alamar Blue Metabolism, pentamidine 0.053 μM alone (Table 4)): -8.8%
inhibition at 0.053 µM ([5]; A549, read-out: Percent inhibition of Alamar Blue Metabolism, pentamidine 0.053 μM alone (Table 5)): 30.4%
inhibition at 0.053 µM ([5]; A549, read-out: Percent inhibition of Alamar Blue Metabolism, pentamidine 0.053 μM alone (Table 6)): 1.1%
inhibition at 0.053 µM ([5]; A549, read-out: Percent inhibition of Alamar Blue Metabolism, pentamidine 0.053 μM alone (Table 7)): -1.9%
inhibition at 0.1 µM ([5]; A549, read-out: Percent inhibition of Alamar Blue Metabolism, pentamidine 0.100 μM alone (Table 8)): -3.1%
inhibition at 0.105 µM ([5]; A549, read-out: Percent inhibition of Alamar Blue Metabolism, pentamidine 0.105 μM alone (Table 3)): 4.7%
inhibition at 0.105 µM ([5]; A549, read-out: Percent inhibition of Alamar Blue Metabolism, pentamidine 0.105 μM alone (Table 4)): -3.7%
inhibition at 0.105 µM ([5]; A549, read-out: Percent inhibition of Alamar Blue Metabolism, pentamidine 0.105 μM alone (Table 5)): 33.7%
inhibition at 0.105 µM ([5]; A549, read-out: Percent inhibition of Alamar Blue Metabolism, pentamidine 0.105 μM alone (Table 6)): -3.7%
inhibition at 0.105 µM ([5]; A549, read-out: Percent inhibition of Alamar Blue Metabolism, pentamidine 0.105 μM alone (Table 7)): 9.2%
inhibition at 0.2 µM ([5]; A549, read-out: Percent inhibition of Alamar Blue Metabolism, pentamidine 0.200 μM alone (Table 8)): -0.7%
inhibition at 0.35 µM ([5]; A549, read-out: Percent inhibition of Alamar Blue Metabolism, pentamidine 0.350 μM alone (Table 8)): -1.5%
inhibition at 0.421 µM ([5]; A549, read-out: Percent inhibition of Alamar Blue Metabolism, pentamidine 0.421 μM alone (Table 4)): 50%
inhibition at 0.421 µM ([5]; A549, read-out: Percent inhibition of Alamar Blue Metabolism, pentamidine 0.421 μM alone (Table 6)): 32.6%
inhibition at 0.421 µM ([5]; A549, read-out: Percent inhibition of Alamar Blue Metabolism, pentamidine 0.421 μM alone (Table 7)): 10.5%
inhibition at 0.422 µM ([5]; A549, read-out: Percent inhibition of Alamar Blue Metabolism, pentamidine 0.422 μM alone (Table 3)): 52.1%
inhibition at 0.422 µM ([5]; A549, read-out: Percent inhibition of Alamar Blue Metabolism, pentamidine 0.422 μM alone (Table 5)): 68.2%
inhibition at 0.5 µM ([5]; A549, read-out: Percent inhibition of Alamar Blue Metabolism, pentamidine 0.500 μM alone (Table 8)): 15.8%
inhibition at 0.7 µM ([5]; A549, read-out: Percent inhibition of Alamar Blue Metabolism, pentamidine 0.700 μM alone (Table 8)): 21.7%
inhibition at 1 µM ([5]; A549, read-out: Percent inhibition of Alamar Blue Metabolism, pentamidine 1.000 μM alone (Table 8)): 48.9%
inhibition at 1.3 µM ([5]; A549, read-out: Percent inhibition of Alamar Blue Metabolism, pentamidine 1.300 μM alone (Table 8)): 64.7%
inhibition at 1.685 µM ([5]; A549, read-out: Percent inhibition of Alamar Blue Metabolism, pentamidine 1.685 μM alone (Table 4)): 79.1%
inhibition at 1.685 µM ([5]; A549, read-out: Percent inhibition of Alamar Blue Metabolism, pentamidine 1.685 μM alone (Table 6)): 71.9%
inhibition at 1.685 µM ([5]; A549, read-out: Percent inhibition of Alamar Blue Metabolism, pentamidine 1.685 μM alone (Table 7)): 62.9%
inhibition at 1.687 µM ([5]; A549, read-out: Percent inhibition of Alamar Blue Metabolism, pentamidine 1.687 μM alone (Table 3)): 78.2%
inhibition at 1.687 µM ([5]; A549, read-out: Percent inhibition of Alamar Blue Metabolism, pentamidine 1.687 μM alone (Table 5)): 83.1%
inhibition at 1.7 µM ([5]; A549, read-out: Percent inhibition of Alamar Blue Metabolism, pentamidine 1.700 μM alone (Table 8)): 70.1%
inhibition at 3.37 µM ([5]; A549, read-out: Percent inhibition of Alamar Blue Metabolism, pentamidine 3.370 μM alone (Table 4)): 79.4%
inhibition at 3.37 µM ([5]; A549, read-out: Percent inhibition of Alamar Blue Metabolism, pentamidine 3.370 μM alone (Table 6)): 80.6%
inhibition at 3.37 µM ([5]; A549, read-out: Percent inhibition of Alamar Blue Metabolism, pentamidine 3.370 μM alone (Table 7)): 73.7%
inhibition at 3.374 µM ([5]; A549, read-out: Percent inhibition of Alamar Blue Metabolism, pentamidine 3.374 μM alone (Table 3)): 85.4%
inhibition at 3.374 µM ([5]; A549, read-out: Percent inhibition of Alamar Blue Metabolism, pentamidine 3.374 μM alone (Table 5)): 87.5%

From patent US20050054708A1, “Combinations of drugs for the treatment of neoplasms” (priority 2003, published 2005)
